Earlier results, collected in patent publication US5030442A (priority 1989, dated 1991).
Entries after “also recorded” stand apart in the source; their conditions may differ.

Conditions: topical form, initial clinical studies

SMILES: Nc1cc(N2CCCCC2)nc(N)[n+]1[O-] [minoxidil]
- hair growth response (in words): reversal of male pattern baldness is most favorable in younger men, and where recent hair loss has occurred; also recorded: new hair growth is observed in a significant percentage of older men and/or where in cases of long-term baldness
